Test results as given in US5110828A (priority 1988, dated 1992).
pIC50: −log10 of the molar value. Where a name gives a salt, the structure may show the parent alone. Read-outs that look alike come from different tables or passages of the source.

Assays:
[1] = target: muscarinic receptors; test: Radio ligand binding, displacement of muscarinic agonist 3H-Oxotremorine-M (3H-OXO-M); design: species or system rat (Hooded Lister); details: displacement of 2 nM 3H-OXO-M, rat cerebral cortex homogenate, 37° C., 30 min, 2 mM magnesium chloride
[2] = target: muscarinic receptors; assay type: binding, rat (Hooded Lister); details: displacement of 0.27 nM 3H-QNB, rat cerebral cortex homogenate, 37° C., 30 min

Structure (SMILES) | pIC50 [1] | pIC50 [2]
CON=CC12CCCN(CC1)C2 (mixture of isomers) [E 1, (±) syn-1-Azabicyclo[3,2,1]oct-5-ylcarboxaldehyde, O-methyloxime hydrochloride salt] | 7.14 | 5.28
CON=C(C)C1CN2CCC1CC2 (mixture of isomers) [E 3, (±) trans-3-Acetyl-1-azabicyclo[2.2.21octane-O-methyloxime hydrochloride salt] | 7.16 | 5.70
C#CCON=C(C)C1CN2CCC1C2 (mixture of isomers) [E 15, (±)exo-3-Acetyl-1-azabicyclo2.2.1]heptane-trans-O-proparqyloxime hydrochloride salt] | 6.66 | 5.41
CCC(=NOC)C1CN2CCC1C2 (mixture of isomers) [E 16, (±)exo-3-Propan-1-one-1-azabicyclo2.2.11heptane-trans-O-methyloxime hydrochloride salt] | 6.69 | 5.47
CON=CC1CN2CCC1CC2 (racemic) [E 2, (±) 1-Azabicyclo[2.2.2]oct-3-ylcarboxaldehyde, O-methyloxime hydrochloride salt] | 7.02 | 5.00
CON=C(C)C12CCCN(CC1)C2 (racemic) [E 6, (±) trans-5-Acetyl-1-azabicyclo[3.2.1]octane-O-methyloxime hydrochloride salt] | 7.34 | 5.36
CON=C(C)C1CN2CCC1C2 (racemic) [E 13, (±)exo-3-Acetyl-1-azabicyclo[2.2.1]heptane-trans-O-methyloxime oxalate salt] | 7.00 | 5.05
C#CCON=CC1CN2CCC1CC2 (racemic) [E 17, (±)1-Azabicyclo[2.2.21oct-3-ylcarboxaldehyde, O-proparqyloxime hydrochloride salt] | 6.72 | 5.61
CON=C(C)C1CC2CCN(C2)C1 (racemic) [E 24, (±)exo-3-Acetyl-1-azabicyclo[3.2.1]octane-trans-O-methyloxime hydrochloride salt] | 6.49 | 5.14
CON=C[C@@H]1CN2CC[C@@H]1C2 (relative stereo) [E 7, (±) exo-1-Azabicyclo[2.2.1]hept-3-ylcarboxaldehyde, O-methyloxime oxalate salt] | 7.85 | 5.32
CCON=C[C@@H]1CN2CC[C@@H]1C2 (relative stereo) [E 8, (±) exo-1-Azabicyclo[2.2.1]hept-3-ylcarboxaldehyde, O-ethyloxime oxalate salt] | 6.80 | 5.25
C#CCON=C[C@@H]1CN2CC[C@@H]1C2 (relative stereo) [E 9, (±) exo-1-Azabicyclo[2.2.11hept-3-ylcarboxaldehyde, O-proparqyloxime oxalate salt] | 7.62 | 5.57
C=CCON=C[C@@H]1CN2CC[C@@H]1C2 (relative stereo) [E 22, (±)exo-1-Azabicyclo2.2.1]hept-3-ylcarboxaldehyde, O-allyloxime oxalate salt] | 6.67 | 5.07
CON=C[C@H]1C[C@@H]2CCN(C1)C2 (relative stereo) [E 23, (±)exo-1-Azabicyclo[3.2.11oct-3-ylcarboxaldehyde, O-methyloxime hydrochloride salt] | 6.62 | 5.25
CON=CC12CCN(CC1)C2 [E 19, syn-1-Azabicyclo[2.2.1]hept-4-ylcarboxaldehyde, O-methyloxime hydrochloride salt] | 6.93 | 4.40
CON=C(C)C12CCN(CC1)C2 [E 20, 4-Acetyl-1-azabicyclo[2.2.1]heptane-O-methyloxime oxalate salt] | 7.26 | 4.90
C#CCON=CC12CCN(CC1)C2 [E 21, syn-1-Azabicyclo[2.2.11hect-4-ylcarboxaldehyde, O-proparqyloxime oxalate salt] | 6.45 | 4.68
